Legend:
[1] = Therapeutic index value was evaluated as the ratio of IC50/EC50; conditions: read-out: TI
H9 [2] = experiment: Anti-HIV activity was evaluated as the concentration required to inhibit HIV-1 replication in H9 lymphocyte cells by 50%; type: functional, cell-based; conditions: Homo sapiens
H9 [3] = experiment: Anti-HIV activity was evaluated as the concentration required to inhibit the growth of uninfected H9 lymphocyte cells by 50%; type: functional, cell-based; conditions: Homo sapiens

Row | SMILES | EC50 (H9 [2]) | selectivity ratio [1] | IC50 (H9 [3])
1 | CC1(C)Oc2ccc3ccc(=O)oc3c2[C@@H](OC(=O)C23CCC(C)(C(=O)O2)C3(C)C)[C@H]1OC(=O)C12CCC(C)(C(=O)O1)C2(C)C (stereo partly drawn) |  | 137000 | 
2 | CC1(C)Oc2ccc3c(-c4ccccc4)cc(=S)oc3c2[C@@H](OC(=O)C23CCC(C)(C(=O)O2)C3(C)C)[C@H]1OC(=O)C12CCC(C)(C(=O)O1)C2(C)C (stereo partly drawn) | 2480 nM | > 56.6 | > 140000 nM
3 | CCCc1cc(=S)oc2c3c(ccc12)OC(C)(C)[C@H](OC(=O)C12CCC(C)(C(=O)O1)C2(C)C)[C@@H]3OC(=O)C12CCC(C)(C(=O)O1)C2(C)C (stereo partly drawn) | 128 nM | > 1150 | > 148000 nM

The remaining compounds from weak to strong by EC50 (H9 [2]), led by results:

Row | EC50 (H9 [2]) | SMILES | selectivity ratio [1] | IC50 (H9 [3])
4 | 29 nM | CC1(C)Oc2ccc3ccc(=S)oc3c2[C@@H](OC(=O)C23CCC(C)(C(=O)O2)C3(C)C)[C@H]1OC(=O)C12CCC(C)(C(=O)O1)C2(C)C (stereo partly drawn) | > 5390 | > 156000 nM
5 | 7.18 nM | Cc1cc(=S)oc2c3c(ccc12)OC(C)(C)[C@H](OC(=O)C12CCC(C)(C(=O)O1)C2(C)C)[C@@H]3OC(=O)C12CCC(C)(C(=O)O1)C2(C)C (stereo partly drawn) | > 21300 | > 153000 nM

From ChEMBL document CHEMBL1130836, “Anti-AIDS agents. 31. Synthesis and anti-HIV activity of 4-substituted 3',4'-di-O-(-)-camphanoyl-(+)-cis-khellactone (DCK) thiolactone analogs” (Bioorg Med Chem Lett, 1998)
